Measurements from article PMC4450297, “Screening Active Compounds from Garcinia Species Native to China Reveals Novel Compounds Targeting the STAT/JAK Signaling Pathway” (BioMed Research International, 2015).

Tests used:
Test in all cases: Cell panel screen (CellTiter-Glo)
Format in all cases: cell-based, human
NCI-H524 = NCI-H524 (Lung), 20 micromolar, 72 hrs
Procedure, shortened: (§1)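 Cells grown in 10% FBS medium were seeded, left overnight at 37°C, then exposed to compound at 20 μM final for 72 h. Luminescent ATP read-out; percent growth inhibition taken relative to DMSO-treated controls after subtraction of cell-free background.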

HCC1599 = HCC1599 (Breast), 20 micromolar, 72 hrs
Procedure, shortened: as §1

A498 = A498 (listed under Lung), 20 micromolar, 72 hrs
Procedure, shortened: as §1

BT-549 = BT-549 (Breast), 20 micromolar, 72 hrs
Procedure, shortened: as §1

MSTO-211-H = MSTO-211-H (Lung), 20 micromolar, 72 hrs
Procedure, shortened: as §1

HT-1197 = HT-1197 (Urinary bladder), 20 micromolar, 72 hrs
Procedure, shortened: as §1

ZR-75-30 = ZR-75-30 (Breast), 20 micromolar, 72 hrs
Procedure, shortened: as §1

M059J = M059J (Brain), 20 micromolar, 72 hrs
Procedure, shortened: as §1

CCF-STTG1 = CCF-STTG1 (Brain), 20 micromolar, 72 hrs
Procedure, shortened: as §1

HCC1395 = HCC1395 (Breast), 20 micromolar, 72 hrs
Procedure, shortened: as §1

A704 = A704 (Kidney), 20 micromolar, 72 hrs
Procedure, shortened: as §1

NCI-H1694 = NCI-H1694 (Lung), 20 micromolar, 72 hrs
Procedure, shortened: as §1

NCI-H2347 = NCI-H2347 (Lung), 20 micromolar, 72 hrs
Procedure, shortened: as §1

Colo 205 = details: Colo 205, 20 micromolar, 72 hrs
Procedure, shortened: as §1

C3A = C3A (Liver), 20 micromolar, 72 hrs
Procedure, shortened: as §1

NCI-H2405 = NCI-H2405 (Lung), 20 micromolar, 72 hrs
Procedure, shortened: as §1

HCC1937 = HCC1937 (Breast), 20 micromolar, 72 hrs
Procedure, shortened: as §1

CW-2 = CW-2 (Colon), 20 micromolar, 72 hrs
Procedure, shortened: as §1

HEC-1-A = HEC-1-A (Uterus), 20 micromolar, 72 hrs
Procedure, shortened: as §1

NCI-H28 = NCI-H28 (Lung), 20 micromolar, 72 hrs
Procedure, shortened: as §1

T47D = T47D (Breast), 20 micromolar, 72 hrs
Procedure, shortened: as §1

Bel-7402 = Bel-7402 (Liver), 20 micromolar, 72 hrs
Procedure, shortened: as §1

HGC-27 = HGC-27 (Stomach), 20 micromolar, 72 hrs
Procedure, shortened: as §1

Panc 03.27 = Panc 03.27 (Pancreas), 20 micromolar, 72 hrs
Procedure, shortened: as §1

HPAF-II = HPAF-II (Pancreas), 20 micromolar, 72 hrs
Procedure, shortened: as §1

TCCSUP = TCCSUP (Urinary bladder), 20 micromolar, 72 hrs
Procedure, shortened: as §1

BT-474 = BT-474 (Breast), 20 micromolar, 72 hrs
Procedure, shortened: as §1

J82 = J82 (Urinary bladder), 20 micromolar, 72 hrs
Procedure, shortened: as §1

NCI-H1623 = NCI-H1623 (Lung), 20 micromolar, 72 hrs
Procedure, shortened: as §1

HCC1569 = HCC1569 (Breast), 20 micromolar, 72 hrs
Procedure, shortened: as §1

C8166 = C8166 (Leukemia), 20 micromolar, 72 hrs
Procedure, shortened: as §1

T98G = T98G (Brain), 20 micromolar, 72 hrs
Procedure, shortened: as §1

SW13 = SW13 (Adrenal gland), 20 micromolar, 72 hrs
Procedure, shortened: as §1

ChaGo-K-1 = ChaGo-K-1 (Lung), 20 micromolar, 72 hrs
Procedure, shortened: as §1

NCI-H1770 = NCI-H1770 (Lung), 20 micromolar, 72 hrs
Procedure, shortened: as §1

RL95 = RL95 (Uterus), 20 micromolar, 72 hrs
Procedure, shortened: as §1

Structure (SMILES) | Percent Inhibition (NCI-H524) [%] | Percent Inhibition (HCC1599) [%] | Percent Inhibition (A498) [%] | Percent Inhibition (BT-549) [%] | Percent Inhibition (MSTO-211-H) [%] | Percent Inhibition (HT-1197) [%] | Percent Inhibition (ZR-75-30) [%] | Percent Inhibition (M059J) [%] | Percent Inhibition (CCF-STTG1) [%] | Percent Inhibition (HCC1395) [%] | Percent Inhibition (A704) [%] | Percent Inhibition (NCI-H1694) [%] | Percent Inhibition (NCI-H2347) [%] | Percent Inhibition (Colo 205) [%] | Percent Inhibition (C3A) [%] | Percent Inhibition (NCI-H2405) [%] | Percent Inhibition (HCC1937) [%] | Percent Inhibition (CW-2) [%] | Percent Inhibition (HEC-1-A) [%] | Percent Inhibition (NCI-H28) [%] | further results
COc1c(CC=C(C)C)c(O)c2c(=O)c3ccc(O)c(O)c3oc2c1CC=C(C)C [gl-9] | 99 | 95 | 86 | 96 | 98 | 97 | 99 | 92 | 92 | 98 | 88 | 100 | 82 | 97 | 77 | 93 | 94 | 99 | 85 | 86 | Percent Inhibition (T47D): 90%; Percent Inhibition (Bel-7402): 96%; Percent Inhibition (HGC-27): 97%; Percent Inhibition (Panc 03.27): 92%; Percent Inhibition (HPAF-II): 85%; Percent Inhibition (TCCSUP): 96%; Percent Inhibition (BT-474): 94%; Percent Inhibition (J82): 99%; Percent Inhibition (NCI-H1623): 85%; Percent Inhibition (HCC1569): 93%; Percent Inhibition (C8166): 96%; Percent Inhibition (T98G): 98%; Percent Inhibition (SW13): 99%; Percent Inhibition (ChaGo-K-1): 97%; Percent Inhibition (NCI-H1770): 93%; Percent Inhibition (RL95): 98%
CC1(C)C=Cc2c(cc(O)c3c(=O)c4ccc(O)c(O)c4oc23)O1 [gl-18] | 96 | 92 | 74 | 86 | 85 | 90 | 95 | 91 | 81 | 94 | 66 | 98 | 84 | 96 | 81 | 66 | 85 | 95 | 81 | 77 | Percent Inhibition (T47D): 83%; Percent Inhibition (Bel-7402): 78%; Percent Inhibition (HGC-27): 92%; Percent Inhibition (Panc 03.27): 96%; Percent Inhibition (HPAF-II): 82%; Percent Inhibition (TCCSUP): 85%; Percent Inhibition (BT-474): 92%; Percent Inhibition (J82): 88%; Percent Inhibition (NCI-H1623): 77%; Percent Inhibition (HCC1569): 81%; Percent Inhibition (C8166): 92%; Percent Inhibition (T98G): 91%; Percent Inhibition (SW13): 96%; Percent Inhibition (ChaGo-K-1): 91%; Percent Inhibition (NCI-H1770): 89%; Percent Inhibition (RL95): 94%
CC(C)=CCCC1(C)C=Cc2c(O)c3c(c(CC=C(C)C)c2O1)OC12C(=CC4CC1C(C)(C)OC2(CC=C(C)C(=O)O)C4=O)C3=O (mixture of isomers) [GB14] | 98 | 98 | 97 | 98 | 97 | 98 | 99 | 97 | 98 | 98 | 97 | 98 | 97 | 98 | 98 | 97 | 98 | 98 | 97 | 97 | Percent Inhibition (T47D): 98%; Percent Inhibition (Bel-7402): 97%; Percent Inhibition (HGC-27): 98%; Percent Inhibition (Panc 03.27): 97%; Percent Inhibition (HPAF-II): 97%; Percent Inhibition (TCCSUP): 98%; Percent Inhibition (BT-474): 98%; Percent Inhibition (J82): 97%; Percent Inhibition (NCI-H1623): 98%; Percent Inhibition (HCC1569): 98%; Percent Inhibition (C8166): 97%; Percent Inhibition (T98G): 98%; Percent Inhibition (SW13): 97%; Percent Inhibition (ChaGo-K-1): 98%; Percent Inhibition (NCI-H1770): 97%; Percent Inhibition (RL95): 97%
CC(C)=CCc1c(O)cc2oc3c(c(=O)c2c1O)C(CC=C(C)C)(CC=C(C)C)C(=O)C(O)=C3 [bn-2, Allanxanthone C] | 97 | 79 | 34 | 54 | 72 | 38 | 86 | 51 | 52 | 84 | 4 | 99 | 40 | 69 | 39 | 40 | 75 | 72 | 51 | 52 | Percent Inhibition (T47D): 54%; Percent Inhibition (Bel-7402): 64%; Percent Inhibition (HGC-27): 53%; Percent Inhibition (Panc 03.27): 48%; Percent Inhibition (HPAF-II): 28%; Percent Inhibition (TCCSUP): 75%; Percent Inhibition (BT-474): 22%; Percent Inhibition (J82): 43%; Percent Inhibition (NCI-H1623): 49%; Percent Inhibition (HCC1569): 63%; Percent Inhibition (C8166): 86%; Percent Inhibition (T98G): 98%; Percent Inhibition (SW13): 15%; Percent Inhibition (ChaGo-K-1): 75%; Percent Inhibition (NCI-H1770): 90%; Percent Inhibition (RL95): 70%
